“Also recorded” adds a separate entry of the source. Marks after values point to notes of the source that are not given here. Starred links: 1 amine or outer side, 2 acyl side, 3 side chain; linkers in the order of their positions; H or OH if unused. Positions of bridges follow the written chain, without caps; N, C: chain ends. Non-standard residues stand in square brackets, D forms with d. Residues, ends and D or L forms follow the SMILES beside them. Chains are numbered I, II in the order given. X1 = CC1=CC(=O)N(O)CCCC(NC(=O)CCN2C(=O)CC([*:3])C2=O)C(=O)OCCC(C)=CC(=O)N(O)CCCC(NC(=O)CCN2C(=O)CC([*:2])C2=O)C(=O)OCCC(C)=CC(=O)N(O)CCCC(NC(=O)CCN2C(=O)CC([*:1])C2=O)C(=O)OCC1; X2 = CC(=O)NC1CCCN(O)C(=O)C=C(C)CCOC(=O)C(NC(=O)CCN2C(=O)CC([*:1])C2=O)CCCN(O)C(=O)C=C(C)CCOC(=O)C(NC(=O)CCN2C(=O)CC([*:2])C2=O)CCCN(O)C(=O)C=C(C)CCOC1=O; Mpa = O=C(O)CCS
Experiments:
[1] = test system: peptidase (protease type 1 from bovine pancreas); assay: trimeric peptides labelled with non-radioactive gallium, neutralized, 1 mU of peptidase; conditions: 37°C
[2] = test system: peptidase (protease type 1 from bovine pancreas); assay: neutralized Ga-labelling solution with 1 mU of peptidase; conditions: 37°C
[3] = test system: peptidase (protease type 1 from bovine pancreas); assay: iron chelated trimeric peptides dissolved in PBS, 1 mU of peptidase added; conditions: 37°C, up to 2 h
[4] = test system: peptidase (protease type 1 from bovine pancreas); assay: PBS with 1 mU of peptidase; conditions: 37°C, up to 2 h
[5] = freshly prepared human serum; conditions: 37°C, up to 4 h
[6] = test system: peptidase (protease type 1 from bovine pancreas, Sigma Aldrich); assay: PBS with 10 mU of peptidase; conditions: 37°C, up to 120 min
[7] = test system: peptidase (protease type 1 from bovine pancreas); assay: radiolabelling solution neutralized, diluted with PBS, 10 mU of peptidase; conditions: 37°C, up to 120 min
[8] = liver homogenate of injected mice; conditions: BALB/c mice, up to 5 min post injection
[9] = test system: A431-CCK2R/A431-mock tumour xenografted BALB/c nude mice; conditions: mouse, in vivo; cited from earlier work
[10] = cited from earlier work
[11] = target: T1, CCK2 receptor (Homo sapiens, UniProt P32239); design: method as in PMID 29849512; conditions: natGa-labelled competitor; 125I-[Leu15]-Gastrin radioligand; whole A431-CCK2R cells; cited from earlier work
T1 construct: expressed in transfected cells; host or cells: A431 human epidermoid carcinoma cells (A431-CCK2R), gift from Dr. L. Aloj
T1 sequence (P32239 1-447): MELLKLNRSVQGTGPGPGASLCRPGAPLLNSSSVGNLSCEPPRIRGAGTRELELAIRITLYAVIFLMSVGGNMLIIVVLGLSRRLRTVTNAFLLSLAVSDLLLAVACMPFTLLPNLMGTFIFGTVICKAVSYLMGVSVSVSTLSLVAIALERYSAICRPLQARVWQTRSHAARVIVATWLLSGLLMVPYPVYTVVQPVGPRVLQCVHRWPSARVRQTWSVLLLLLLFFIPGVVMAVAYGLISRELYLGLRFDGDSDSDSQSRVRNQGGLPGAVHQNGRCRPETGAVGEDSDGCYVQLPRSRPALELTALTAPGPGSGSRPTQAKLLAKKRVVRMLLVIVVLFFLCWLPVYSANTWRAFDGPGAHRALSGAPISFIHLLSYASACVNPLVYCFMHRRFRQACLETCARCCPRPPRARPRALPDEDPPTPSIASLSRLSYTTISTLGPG

3-MP^0-[D-Glu^1,desGlu^2-6]-Ala-Tyr-Gly-Trp-Met-Asp-Phe-NH2
fragment found [1]: Ga-Trimer-Met-M1; also recorded: Ga-Trimer-Met-M2; also recorded: Ga-Trimer-Met-M3
fragment found [2]: Ga-Trimer-Met-M1 (tR = 10.08 min); also recorded: Ga-Trimer-Met-M2 (tR = 8.02 min)
cleaved bond [3]: Tyr-Gly, major
cleaved bond [4]: Tyr-Gly, major

3-MP^0-[D-Glu^1,desGlu^2-6]-Ala-Tyr-Gly-Trp-Met-Asp-Phe-NH2 [68Ga-Trimer-Met]
fragment found [5]: ^68Ga-Trimer-Met-M1 (tR = 10.14 min), major; also recorded: ^68Ga-Trimer-Met-M2 (tR = 8.09 min), major
fragment found [6]: ^68Ga-Trimer-Met-M1 (tR = 10.14 min), major; also recorded: ^68Ga-Trimer-Met-M2 (tR = 8.09 min), major; also recorded: ^68Ga-Trimer-Met-M3 (tR = 5.68 min)

3-MP^0-[D-Glu^1,desGlu^2-6]-Ala-Tyr-Gly-Trp-Met-Asp-Phe-NH2 [^68Ga-Trimer-Met]
fragment found [7]: ^68Ga-Trimer-Met-M1, major, 5 min; also recorded: ^68Ga-Trimer-Met-M2, major; also recorded: ^68Ga-Trimer-Met-M3
fragment found [8]: ^68Ga-Trimer-Met-M1, major, 5 min post injection; also recorded: ^68Ga-Trimer-Met-M2, major, 5 min post injection

3-MP^0-[D-Glu^1,desGlu^2-6]-Ala-Tyr-Gly-Trp-Nle-Asp-Phe-NH2
fragment found [1]: Ga-Trimer-Nle-M1; also recorded: Ga-Trimer-Nle-M2; also recorded: Ga-Trimer-Nle-M3
fragment found [2]: Ga-Trimer-Nle-M1 (tR = 10.86 min); also recorded: Ga-Trimer-Nle-M2 (tR = 8.52 min)
cleaved bond [3]: Tyr-Gly, major
cleaved bond [4]: Tyr-Gly, major

3-MP^0-[D-Glu^1,desGlu^2-6]-Ala-Tyr-Gly-Trp-Nle-Asp-Phe-NH2 [68Ga-Trimer-Nle]
fragment found [5]: ^68Ga-Trimer-Nle-M1 (tR = 10.90 min), major; also recorded: ^68Ga-Trimer-Nle-M2 (tR = 8.59 min), major
fragment found [6]: ^68Ga-Trimer-Nle-M1 (tR = 10.93 min), major; also recorded: ^68Ga-Trimer-Nle-M2 (tR = 8.60 min), major

3-MP^0-[D-Glu^1,desGlu^2-6]-Ala-Tyr-Gly-Trp-Nle-Asp-Phe-NH2 [^68Ga-Trimer-Nle]
fragment found [7]: ^68Ga-Trimer-Nle-M1, major, 5 min; also recorded: ^68Ga-Trimer-Nle-M2, major
fragment found [8]: ^68Ga-Trimer-Nle-M1, major, 5 min post injection; also recorded: ^68Ga-Trimer-Nle-M2, major, 5 min post injection

CSCC[C@H](NC(=O)[C@H](Cc1c[nH]c2ccccc12)NC(=O)CNC(=O)[C@H](Cc1ccc(O)cc1)NC(=O)[C@H](C)NC(=O)[C@@H](CCC(=O)O)NC(=O)CCSC1CC(=O)N(CCC(=O)NC2CCCN(O)C(=O)C=C(C)CCOC(=O)C(NC(=O)CCN3C(=O)CC(SCCC(=O)N[C@H](CCC(=O)O)C(=O)N[C@@H](C)C(=O)N[C@@H](Cc4ccc(O)cc4)C(=O)NCC(=O)N[C@@H](Cc4c[nH]c5ccccc45)C(=O)N[C@@H](CCSC)C(=O)N[C@@H](CC(=O)O)C(=O)N[C@@H](Cc4ccccc4)C(N)=O)C3=O)CCCN(O)C(=O)C=C(C)CCOC(=O)C(NC(C)=O)CCCN(O)C(=O)C=C(C)CCOC2=O)C1=O)C(=O)N[C@@H](CC(=O)O)C(=O)N[C@@H](Cc1ccccc1)C(N)=O (stereo partly drawn) [Dimer-Met] (I: [Mpa][dE]AYGWMDF-NH2 / II: [Mpa][dE]AYGWMDF-NH2; linker I:1-II:1 via X2)
Ratio T/O tumour-to-A431-mock [9]: 17.9 ± 6.1^c
Ratio T/O tumour-to-Blood [9]: 16.0 ± 3.1^cd
Ratio T/O tumour-to-Bone [9]: 11.6 ± 1.9^c
Ratio T/O tumour-to-Heart [9]: 27.2 ± 4.8^cd
Ratio T/O tumour-to-Intestine [9]: 19.9 ± 4.9^acd
Ratio T/O tumour-to-Kidneys [9]: 0.30 ± 0.06^c
Ratio T/O tumour-to-Liver [9]: 11.1 ± 2.4^cd
Ratio T/O tumour-to-Lung [9]: 14.4 ± 2.3^cd
Ratio T/O tumour-to-Muscle [9]: 31.4 ± 13.2^c
Ratio T/O tumour-to-Pancreas [9]: 17.9 ± 3.2^cd
Ratio T/O tumour-to-Spleen [9]: 23.1 ± 4.2^cd
Ratio T/O tumour-to-Stomach [9]: 4.0 ± 0.5^cd
Distribution coefficient logD (pH 7.4) [10]: -2.38 ± 0.04
IC50 [11]: 0.85 ± 0.15 nM

CSCC[C@H](NC(=O)[C@H](Cc1c[nH]c2ccccc12)NC(=O)CNC(=O)[C@H](Cc1ccc(O)cc1)NC(=O)[C@H](C)NC(=O)[C@@H](CCC(=O)O)NC(=O)CCSC1CC(=O)N(CCC(=O)NC2CCCN(O)C(=O)C=C(C)CCOC(=O)C(NC(=O)CCN3C(=O)CC(SCCC(=O)N[C@H](CCC(=O)O)C(=O)N[C@@H](C)C(=O)N[C@@H](Cc4ccc(O)cc4)C(=O)NCC(=O)N[C@@H](Cc4c[nH]c5ccccc45)C(=O)N[C@@H](CCSC)C(=O)N[C@@H](CC(=O)O)C(=O)N[C@@H](Cc4ccccc4)C(N)=O)C3=O)CCCN(O)C(=O)C=C(C)CCOC(=O)C(NC(=O)CCN3C(=O)CC(SCCC(=O)N[C@H](CCC(=O)O)C(=O)N[C@@H](C)C(=O)N[C@@H](Cc4ccc(O)cc4)C(=O)NCC(=O)N[C@@H](Cc4c[nH]c5ccccc45)C(=O)N[C@@H](CCSC)C(=O)N[C@@H](CC(=O)O)C(=O)N[C@@H](Cc4ccccc4)C(N)=O)C3=O)CCCN(O)C(=O)C=C(C)CCOC2=O)C1=O)C(=O)N[C@@H](CC(=O)O)C(=O)N[C@@H](Cc1ccccc1)C(N)=O (stereo partly drawn) [Trimer-Met] (I: [Mpa][dE]AYGWMDF-NH2 / II: [Mpa][dE]AYGWMDF-NH2 / III: [Mpa][dE]AYGWMDF-NH2; linker I:1-II:1-III:1 via X1)
Distribution coefficient logD (pH 7.4) [10]: -2.20 ± 0.07
IC50 [11]: 8.33 ± 2.2 nM

Monomer-Met: monovalent FSC-based minigastrin conjugate: dAcFSC-mal coupled to one MG-Met-SH peptide (EAYGWMDF; D-Glu at position 1 (printed D-Glu1, desGlu2-6); N-terminal 3-mercaptopropanoyl (3-MP0) whose thiol is coupled to the maleimide of diacetyl-fusarinine C (dAcFSC-mal); C-terminal Phe amide; FSC chelate)
IC50 [11]: 9.71 ± 3.55 nM

— PMC6066219 (PLoS ONE, 2018)
